Laboratory results reported in the ASAP Discovery antiviral challenge data (2025).
Values after ≈ are worked out from the molar mass of the structure shown. Values joined by “and” are separate entries in the source; they are usually repeats but may differ in a detail not shown here. Equal values may be shown once.

How the values were obtained:
[1] = human; liver_microsomes
[2] = mouse; liver_microsomes
[3] = not given; remark: listed apart in the source
[4] = mdck_mdr1

CC(C)(C)[C@H](Nc1ncnc2[nH]c(-c3cnn(CC(N)=O)c3)cc12)c1ccc2c(n1)OCCO2 (racemic)
microsomal CLint [1]: 36 µL/min/mg
microsomal CLint [2]: 31 µL/min/mg
solubility kinetic: 48 µM (≈ 22.2 µg/mL)
logD [3]: 2.7
Papp [4]: 0.822 ×10⁻⁶ cm/s

CC(C)[C@H](Nc1ncnc2[nH]c(-c3ccc4cncn4c3)cc12)c1ccc2c(c1)S(=O)(=O)CCC2 (racemic)
microsomal CLint [1]: 210 µL/min/mg
microsomal CLint [2]: 170 µL/min/mg
solubility kinetic: 14 µM (≈ 6.81 µg/mL)
logD [3]: 4
Papp [4]: 0.56 ×10⁻⁶ cm/s

CC(C)[C@H](Nc1ncnc2[nH]c(-c3ccc4nnn(C)c4c3)cc12)c1ccc2c(c1)S(=O)(=O)CCC2 (racemic)
microsomal CLint [1]: 752 µL/min/mg
microsomal CLint [2]: 219 µL/min/mg
solubility kinetic: 6 µM (≈ 3.01 µg/mL)
logD [3]: 3.4
Papp [4]: 0.827 ×10⁻⁶ cm/s

CC(C)[C@H](Nc1ncnc2[nH]c(-c3cncc(S(C)(=O)=O)c3)cc12)c1ccc2c(c1)S(=O)(=O)CCC2 (racemic)
microsomal CLint [1]: 635 µL/min/mg
microsomal CLint [2]: 272 µL/min/mg
solubility kinetic: 31 µM (≈ 16.3 µg/mL)
logD [3]: 3.1
Papp [4]: 0.491 ×10⁻⁶ cm/s

CC(C)[C@H](Nc1ncnc2[nH]c(-c3cnn(C)c3)cc12)c1ccc2c(c1)S(=O)(=O)CCC2 (racemic)
microsomal CLint [1]: 141 µL/min/mg
microsomal CLint [2]: 155 µL/min/mg
solubility kinetic: 94 µM (≈ 42.4 µg/mL)
logD [3]: 3.3
Papp [4]: 1.73 ×10⁻⁶ cm/s

CC(C)[C@H](Nc1ncnc2[nH]c(-c3cnn(C)c3)cc12)c1ccc2c(c1)S(=O)(=O)NCC2 (racemic)
microsomal CLint [1]: 120 µL/min/mg
microsomal CLint [2]: 87 µL/min/mg
solubility kinetic: 105 µM (≈ 47.4 µg/mL)
logD [3]: 3.2
Papp [4]: 1.58 ×10⁻⁶ cm/s

CC(C)[C@H](Nc1ncnc2[nH]c(-c3cnn(C)c3C#N)cc12)c1ccc2c(c1)S(=O)(=O)CCC2 (racemic)
microsomal CLint [1]: 490 µL/min/mg
microsomal CLint [2]: 440 µL/min/mg
solubility kinetic: 34 µM (≈ 16.2 µg/mL)
logD [3]: 3.6
Papp [4]: 1.97 ×10⁻⁶ cm/s

CC(C)[C@H](Nc1ncnc2[nH]c(-c3cnn(C)c3C#N)cc12)c1ccc2c(n1)NC(=O)CO2 (racemic)
microsomal CLint [1]: 70 µL/min/mg
microsomal CLint [2]: 145 µL/min/mg
solubility kinetic: 29 µM (≈ 12.9 µg/mL)
logD [3]: 3.7
Papp [4]: 9.83 ×10⁻⁶ cm/s

CC(C)[C@H](Nc1ncnc2[nH]c(-c3cnn(CC(=O)N(C)C)c3)cc12)c1ccc2c(c1)S(=O)(=O)CCC2 (racemic)
microsomal CLint [1]: 106 µL/min/mg
microsomal CLint [2]: 68 µL/min/mg
solubility kinetic: 38 µM (≈ 19.8 µg/mL)
logD [3]: 2.1
Papp [4]: 0.67 ×10⁻⁶ cm/s

CC(C)[C@H](Nc1ncnc2[nH]c(-c3cnn(CC(N)=O)c3)cc12)c1ccc2c(c1)S(=O)(=O)CCC2 (racemic)
microsomal CLint [1]: 116 µL/min/mg
microsomal CLint [2]: 61 µL/min/mg
solubility kinetic: 341 µM (≈ 168 µg/mL)
logD [3]: 1.9
Papp [4]: 0.32 ×10⁻⁶ cm/s

CC(C)[C@H](Nc1ncnc2[nH]c(-c3cnn(CC(N)=O)c3)cc12)c1ccc2c(n1)OCCO2 (racemic)
microsomal CLint [1]: 14 µL/min/mg
microsomal CLint [2]: 12 µL/min/mg
solubility kinetic: 385 µM (≈ 173 µg/mL)
logD [3]: 2.4
Papp [4]: 2.46 ×10⁻⁶ cm/s

CC(C)[C@H](Nc1ncnc2[nH]cc(C(=O)NC3CC3)c12)c1ccc2c(c1)S(=O)(=O)CCC2 (racemic)
microsomal CLint [1]: 29 µL/min/mg
microsomal CLint [2]: 234 µL/min/mg
solubility kinetic: 257 µM (≈ 117 µg/mL)
logD [3]: 3.1
Papp [4]: 2.46 ×10⁻⁶ cm/s

CC(C)[C@H](Nc1ncnc2[nH]ccc12)c1ccc2c(c1)S(=O)(=O)CCO2 (racemic)
microsomal CLint [1]: 18 µL/min/mg
microsomal CLint [2]: 69 µL/min/mg
solubility kinetic: 372 µM (≈ 139 µg/mL)
logD [3]: 2.6
Papp [4]: 4.4 ×10⁻⁶ cm/s

CCNC(=O)c1cc2c(N[C@H](c3ccc4c(c3)S(=O)(=O)CCC4)C(C)C)ncnc2[nH]1 (racemic)
microsomal CLint [1]: 108 µL/min/mg
microsomal CLint [2]: 85 µL/min/mg
solubility kinetic: 336 µM (≈ 148 µg/mL)
logD [3]: 2.8
Papp [4]: 0.7 ×10⁻⁶ cm/s

CCNC(=O)c1cc2c(N[C@H](c3ccc4c(c3)S(=O)(=O)CCO4)C(C)C)ncnc2[nH]1 (racemic)
microsomal CLint [1]: 64 µL/min/mg
microsomal CLint [2]: 26 µL/min/mg
solubility kinetic: 328 µM (≈ 145 µg/mL)
logD [3]: 2.9
Papp [4]: 0.471 ×10⁻⁶ cm/s

CCNC(=O)c1cc2c(N[C@H](c3ccc4c(c3)S(=O)(=O)NCC4)C(C)C)ncnc2[nH]1 (racemic)
microsomal CLint [1]: 85 µL/min/mg
microsomal CLint [2]: 45 µL/min/mg
solubility kinetic: 344 µM (≈ 152 µg/mL)
logD [3]: 2.6
Papp [4]: 1.96 ×10⁻⁶ cm/s

CN(c1ccc2c(c1)CNC2)[C@H](C(=O)NCC(F)F)c1cc(Cl)cc(C2CC2)c1 (racemic)
microsomal CLint [1]: 17.1 µL/min/mg
microsomal CLint [2]: 10.6 µL/min/mg
solubility kinetic: 172 µM (≈ 72.2 µg/mL)
logD [3]: 1.6
Papp [4]: 2.1 ×10⁻⁶ cm/s

CNC(=O)Cn1cc(-c2cc3c(N[C@H](c4ccc5c(c4)S(=O)(=O)CCC5)C(C)C)ncnc3[nH]2)cn1 (racemic)
microsomal CLint [1]: 94 µL/min/mg
microsomal CLint [2]: 77 µL/min/mg
solubility kinetic: 306 µM (≈ 155 µg/mL)
logD [3]: 2.4
Papp [4]: 0.47 ×10⁻⁶ cm/s

CNC(=O)c1c[nH]c2ncnc(N[C@H](c3ccc4c(c3)S(=O)(=O)CCC4)C(C)C)c12 (racemic)
microsomal CLint [1]: 131 µL/min/mg
microsomal CLint [2]: 192 µL/min/mg
solubility kinetic: 390 µM (≈ 167 µg/mL)
logD [3]: 2.5
Papp [4]: 2.23 ×10⁻⁶ cm/s

CNC(=O)c1cc2c(N[C@H](c3ccc4c(c3)S(=O)(=O)CCC4)C(C)C)ncnc2[nH]1 (racemic)
microsomal CLint [1]: 77 µL/min/mg
microsomal CLint [2]: 46 µL/min/mg
solubility kinetic: 369 µM (≈ 158 µg/mL)
logD [3]: 2.4
Papp [4]: 0.46 ×10⁻⁶ cm/s

CNCc1cc(-c2cc3c(N[C@H](c4ccc5c(c4)S(=O)(=O)CCC5)C(C)C)ncnc3[nH]2)co1 (racemic)
microsomal CLint [1]: 57 µL/min/mg
microsomal CLint [2]: 52 µL/min/mg
solubility kinetic: 321 µM (≈ 154 µg/mL)
logD [3]: 2.1
Papp [4]: 1.61 ×10⁻⁶ cm/s

CNCc1cc(-c2cc3c(N[C@H](c4ccc5c(c4)S(=O)(=O)NCC5)C(C)C)ncnc3[nH]2)co1 (racemic)
microsomal CLint [1]: 46 µL/min/mg
microsomal CLint [2]: 42 µL/min/mg
solubility kinetic: 372 µM (≈ 179 µg/mL)
logD [3]: 1.9
Papp [4]: 1.2 ×10⁻⁶ cm/s

COCCNC(=O)c1c[nH]c2ncnc(N[C@H](c3ccc4c(c3)S(=O)(=O)CCC4)C(C)C)c12 (racemic)
microsomal CLint [1]: 540 µL/min/mg
microsomal CLint [2]: 888 µL/min/mg
solubility kinetic: 378 µM (≈ 178 µg/mL)
logD [3]: 2.8
Papp [4]: 1.62 ×10⁻⁶ cm/s

Cn1ncc(-c2cc3c(N[C@H](c4ccc5c(n4)OCCO5)C(C)(C)C)ncnc3[nH]2)c1C#N (racemic)
microsomal CLint [1]: 81 µL/min/mg
microsomal CLint [2]: 209 µL/min/mg
solubility kinetic: 24 µM (≈ 10.7 µg/mL)
logD [3]: 2.7
Papp [4]: 13.5 ×10⁻⁶ cm/s

NCc1cccc(CNC(=O)[C@H](NC(=O)OCc2ccccc2)c2ccc(OCc3ccccc3)cc2)c1 (racemic)
microsomal CLint [1]: 3.89 µL/min/mg
microsomal CLint [2]: 2.73 µL/min/mg
solubility kinetic: 78 µM (≈ 39.7 µg/mL)
logD [3]: 2.7
Papp [4]: 1.44 ×10⁻⁶ cm/s

CC(C)(C)[C@H](Nc1ncnc2[nH]c(-c3cnn(CC(N)=O)c3)cc12)c1ccc2c(n1)OCCO2 (single isomer, unassigned)
microsomal CLint [1]: 27 µL/min/mg and 42 µL/min/mg
microsomal CLint [2]: 10 µL/min/mg and 30 µL/min/mg
solubility kinetic: 372 µM and 390 µM
logD [3]: 2.7 and 2.9
Papp [4]: 1.02 ×10⁻⁶ cm/s and 1.53 ×10⁻⁶ cm/s

CC(C)[C@H](Nc1ncnc2[nH]c(-c3cnn(C)c3C#N)cc12)c1ccc2c(c1)S(=O)(=O)CCC2 (single isomer, unassigned)
microsomal CLint [1]: 935 µL/min/mg and 516 µL/min/mg
microsomal CLint [2]: 311 µL/min/mg and 709 µL/min/mg
solubility kinetic: 22 µM and 26 µM
logD [3]: 3.3 and 3.7
Papp [4]: 4.33 ×10⁻⁶ cm/s and 1.82 ×10⁻⁶ cm/s

CNC(=O)Cn1cc(-c2cc3c(N[C@H](c4ccc5c(c4)S(=O)(=O)CCC5)C(C)C)ncnc3[nH]2)cn1 (single isomer, unassigned)
microsomal CLint [1]: 92 µL/min/mg and 237 µL/min/mg
microsomal CLint [2]: 111 µL/min/mg and 44 µL/min/mg
solubility kinetic: 323 µM and 294 µM
logD [3]: 2.4 and 2.3
Papp [4]: 0.396 ×10⁻⁶ cm/s and 0.916 ×10⁻⁶ cm/s
